# Key:
# [1] = In Vitro binding affinity for 5-hydroxytryptamine 2 receptor
# [2] = species: Rattus norvegicus; assay: Biodistribution of [123I]-label in rat blood was reported at 2 hr post injection. Value shown is %ID/g of tissue; type: ADME, organism-based; conditions: in vivo
# [3] = species: Rattus norvegicus; assay: Biodistribution of [123I]-label in rat blood was reported at 24 hr post injection. Value shown is %ID/g of tissue; type: ADME, organism-based; conditions: in vivo
# [4] = species: Rattus norvegicus; assay: Biodistribution of [123I]-label in rat blood was reported at 4 hr post injection. Value shown is %ID/g of tissue; type: ADME, organism-based; conditions: in vivo
# [5] = species: Rattus norvegicus; assay: Biodistribution of [123I]-label in rat brain was reported at 2 hr post injection. Value shown is %ID/g of tissue; type: ADME, organism-based; conditions: in vivo
# [6] = species: Rattus norvegicus; assay: Biodistribution of [123I]-label in rat brain was reported at 4 hr post injection. Value shown is %ID/g of tissue; type: ADME, organism-based; conditions: in vivo
# [7] = species: Rattus norvegicus; assay: Biodistribution of [123I]-label in rat heart was reported at 0.33 hr post injection. Value shown is %ID/g of tissue; type: ADME, organism-based; conditions: in vivo
# [8] = species: Rattus norvegicus; assay: Biodistribution of [123I]-label in rat heart was reported at 1 hr post injection. Value shown is %ID/g of tissue; type: ADME, organism-based; conditions: in vivo
# [9] = species: Rattus norvegicus; assay: Biodistribution of [123I]-label in rat heart was reported at 2 hr post injection. Value shown is %ID/g of tissue; type: ADME, organism-based; conditions: in vivo
# [10] = species: Rattus norvegicus; assay: Biodistribution of [123I]-label in rat lung was reported at 1 hr post injection. Value shown is %ID/g of tissue; type: ADME, organism-based; conditions: in vivo
# [11] = species: Rattus norvegicus; assay: Biodistribution of [123I]-label in rat lung was reported at 2 hr post injection. Value shown is %ID/g of tissue; type: ADME, organism-based; conditions: in vivo
# [12] = species: Rattus norvegicus; assay: Biodistribution of [123I]-label in rat spleen was reported at 2 hr post injection. Value shown is %ID/g of tissue; type: ADME, organism-based; conditions: in vivo
# [13] = species: Rattus norvegicus; assay: Biodistribution of [123I]-label in rat spleen was reported at 4 hr post injection. Value shown is %ID/g of tissue; type: ADME, organism-based; conditions: in vivo
# [14] = species: Rattus norvegicus; assay: Biodistribution of [123I]-label in rat stomach was reported at 0.33 hr post injection. Value shown is %ID/g of tissue; type: ADME, organism-based; conditions: in vivo
# [15] = species: Rattus norvegicus; assay: Biodistribution of [123I]-label in rat stomach was reported at 1 h post injection. Value shown is %ID/g of tissue; type: ADME, organism-based; conditions: in vivo
# [16] = species: Rattus norvegicus; assay: Biodistribution of [123I]-label in rat stomach was reported at 24 hr post injection. Value shown is %ID/g of tissue; type: ADME, organism-based; conditions: in vivo
# [17] = species: Rattus norvegicus; assay: Distribution of [123I]-label in rat brain (cerebellum) was reported at 20 min post injection. Value shown is %ID/g of tissue; type: ADME, organism-based; conditions: in vivo
# [18] = species: Rattus norvegicus; assay: Distribution of [123I]-label in rat brain (cerebellum) was reported at 60 min post injection. Value shown is %ID/g of tissue; type: ADME, organism-based; conditions: in vivo, 1 h
# [19] = species: Rattus norvegicus; assay: Distribution of [123I]-label in rat brain (diencephalon) was reported at 60 min post injection. Value shown is %ID/g of tissue; type: ADME, organism-based; conditions: in vivo, 1 h
# [20] = species: Rattus norvegicus; assay: Distribution of [123I]-label in rat brain (hippocampus) was reported at 60 min post injection. Value shown is %ID/g of tissue; type: ADME, organism-based; conditions: in vivo, 1 h
# [21] = species: Rattus norvegicus; assay: Distribution of [123I]-label in rat brain (medulla pons) was reported at 60 min post injection. Value shown is %ID/g of tissue; type: ADME, organism-based; conditions: in vivo, 1 h
# [22] = species: Rattus norvegicus; assay: Distribution of [123I]-label in rat brain (posterior cortex) was reported at 20 min post injection. Value shown is %ID/g of tissue; type: ADME, organism-based; conditions: in vivo
# [23] = species: Rattus norvegicus; assay: Distribution of [123I]-label in rat brain (posterior cortex) was reported at 60 min post injection. Value shown is %ID/g of tissue; type: ADME, organism-based; conditions: in vivo, 1 h
# [24] = species: Rattus norvegicus; assay: Distribution of [123I]-label in rat brain (striatum) was reported at 20 min post injection. Value shown is %ID/g of tissue; type: ADME, organism-based; conditions: in vivo
# [25] = species: Rattus norvegicus; assay: Biodistribution of [123I]-label in rat blood was reported at 1 hr post injection. Value shown is %ID/g of tissue; type: ADME, organism-based; conditions: in vivo
# [26] = species: Rattus norvegicus; assay: Biodistribution of [123I]-label in rat heart was reported at 4 hr post injection. Value shown is %ID/g of tissue; type: ADME, organism-based; conditions: in vivo
# [27] = species: Rattus norvegicus; assay: Biodistribution of [123I]-label in rat intestine was reported at 0.33 hr post injection. Value shown is %ID/g of tissue; type: ADME, organism-based; conditions: in vivo
# [28] = species: Rattus norvegicus; assay: Biodistribution of [123I]-label in rat intestine was reported at 1 hr post injection. Value shown is %ID/g of tissue; type: ADME, organism-based; conditions: in vivo
# [29] = species: Rattus norvegicus; assay: Biodistribution of [123I]-label in rat intestine was reported at 2 hr post injection. Value shown is %ID/g of tissue; type: ADME, organism-based; conditions: in vivo
# [30] = species: Rattus norvegicus; assay: Biodistribution of [123I]-label in rat kidneys was reported at 0.33 hr post injection. Value shown is %ID/g of tissue; type: ADME, organism-based, Kidney; conditions: in vivo
# [31] = species: Rattus norvegicus; assay: Biodistribution of [123I]-label in rat kidneys was reported at 4 hr post injection. Value shown is %ID/g of tissue; type: ADME, organism-based, Kidney; conditions: in vivo
# [32] = species: Rattus norvegicus; assay: Biodistribution of [123I]-label in rat liver was reported at 1 hr post injection. Value shown is %ID/g of tissue; type: ADME, organism-based; conditions: in vivo
# [33] = species: Rattus norvegicus; assay: Biodistribution of [123I]-label in rat liver was reported at 2 hr post injection. Value shown is %ID/g of tissue; type: ADME, organism-based; conditions: in vivo
# [34] = species: Rattus norvegicus; assay: Biodistribution of [123I]-label in rat lung was reported at 24 hr post injection. Value shown is %ID/g of tissue; type: ADME, organism-based; conditions: in vivo
# [35] = species: Rattus norvegicus; assay: Biodistribution of [123I]-label in rat lung was reported at 4 hr post injection. Value shown is %ID/g of tissue; type: ADME, organism-based; conditions: in vivo
# [36] = species: Rattus norvegicus; assay: Biodistribution of [123I]-label in rat muscle was reported at 0.33 hr post injection. Value shown is %ID/g of tissue; type: ADME, organism-based; conditions: in vivo
# [37] = species: Rattus norvegicus; assay: Biodistribution of [123I]-label in rat muscle was reported at 2 hr post injection. Value shown is %ID/g of tissue; type: ADME, organism-based; conditions: in vivo
# [38] = species: Rattus norvegicus; assay: Biodistribution of [123I]-label in rat brain was reported at 1 hr post injection. Value shown is %ID/organ; type: ADME, organism-based; conditions: in vivo
# [39] = species: Rattus norvegicus; assay: Biodistribution of [123I]-label in rat brain was reported at 24 hr post injection. Value shown is %ID/organ; type: ADME, organism-based; conditions: in vivo
# [40] = species: Rattus norvegicus; assay: Biodistribution of [123I]-label in rat brain was reported at 4 hr post injection. Value shown is %ID/organ; type: ADME, organism-based; conditions: in vivo
# [41] = species: Rattus norvegicus; assay: Biodistribution of [123I]-label in rat thyroid was reported at 1 hr post injection. Value shown is %ID/organ; type: ADME, organism-based, Thyroid gland; conditions: in vivo
# [42] = species: Rattus norvegicus; assay: Biodistribution of [123I]-label in rat thyroid was reported at 24 hr post injection. Value shown is %ID/organ; type: ADME, organism-based, Thyroid gland; conditions: in vivo
# [43] = species: Rattus norvegicus; assay: Biodistribution of [123I]-label in rat thyroid was reported at 4 hr post injection. Value shown is %ID/organ; type: ADME, organism-based, Thyroid gland; conditions: in vivo
# [44] = Partition coefficient (logP); type: physicochemical; conditions: octanol/water
# [45] = molecular target: D(2) dopamine receptor (Homo sapiens, UniProt P14416); assay: In vitro binding affinity for Dopamine receptor D2
# [46] = molecular target: Sigma non-opioid intracellular receptor 1 (Homo sapiens, UniProt Q99720); assay: 50% inhibitory dose against sigma receptor; type: functional
# [47] = molecular target: Sigma 2 receptor; assay: Receptor binding affinity against Sigma-2 receptor from guinea pig membranes; design: species or system Cavia porcellus
# Chain of Sigma non-opioid intracellular receptor 1 (Q99720 whole entry): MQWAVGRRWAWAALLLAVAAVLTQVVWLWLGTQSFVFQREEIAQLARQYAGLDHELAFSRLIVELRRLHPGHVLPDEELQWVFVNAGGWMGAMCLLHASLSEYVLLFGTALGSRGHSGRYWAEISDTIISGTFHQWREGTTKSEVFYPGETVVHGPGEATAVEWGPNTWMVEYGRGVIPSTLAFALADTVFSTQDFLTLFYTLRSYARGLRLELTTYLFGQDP
# Chain of D(2) dopamine receptor (P14416 whole entry): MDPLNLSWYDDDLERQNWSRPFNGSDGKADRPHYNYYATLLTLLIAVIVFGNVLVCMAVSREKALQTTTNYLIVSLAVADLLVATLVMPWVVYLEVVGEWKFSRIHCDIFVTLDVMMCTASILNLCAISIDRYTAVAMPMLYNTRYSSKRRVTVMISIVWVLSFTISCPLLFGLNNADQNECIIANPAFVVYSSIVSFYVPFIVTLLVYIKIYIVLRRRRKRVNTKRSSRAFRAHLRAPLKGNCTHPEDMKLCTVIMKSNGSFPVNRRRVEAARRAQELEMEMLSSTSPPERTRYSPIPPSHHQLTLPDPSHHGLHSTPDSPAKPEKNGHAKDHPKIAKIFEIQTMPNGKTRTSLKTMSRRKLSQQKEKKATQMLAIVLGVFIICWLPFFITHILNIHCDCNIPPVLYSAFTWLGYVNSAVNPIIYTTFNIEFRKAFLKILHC
smiles,measurement,setting,value
N#Cc1ccc(OCC2CCN(C/C=C/I)CC2)cc1,Ki,[1],> 10 µM
same,ID/g,[2],0.03%
same,ID/g,[3],0.01%
same,ID/g,[4],0.02%
same,ID/g,[5],0.91%
same,ID/g,[6],1.07%
same,ID/g,[7],1.25%
same,ID/g,[8],1.21%
same,ID/g,[9],0.81%
same,ID/g,[10],6.35%
same,ID/g,[11],3.75%
same,ID/g,[12],0.89%
same,ID/g,[13],0.93%
same,ID/g,[14],0.46%
same,ID/g,[15],0.65%
same,ID/g,[16],0.18%
same,ID/g,[17],1.01%
same,ID/g,[18],1.09%
same,ID/g,[19],1.18%
same,ID/g,[20],1.06%
same,ID/g,[21],1%
same,ID/g,[22],1.43%
same,ID/g,[23],1.51%
same,ID/g,[24],1.17%
same,ID/g,[25],0.08%
same,ID/g,[26],0.67%
same,ID/g,[27],0.54%
same,ID/g,[28],0.82%
same,ID/g,[29],0.84%
same,ID/g,[30],1.64%
same,ID/g,[31],1.31%
same,ID/g,[32],0.45%
same,ID/g,[33],0.43%
same,ID/g,[34],0.79%
same,ID/g,[35],3.14%
same,ID/g,[36],0.23%
same,ID/g,[37],0.22%
same,ID,[38],1.96%
same,ID,[39],1.61%
same,ID,[40],2.03%
same,ID,[41],0.3%
same,ID,[42],1.19%
same,ID,[43],0.34%
same,logP,[44],3.36
same,Ki,[45],> 10 µM
same,ID50,[46],0.01 mg/kg
same,Ki,[47],0.0388 µM
